Each structure is given as a SMILES string. Structures can show the parent of a compound that is named as a salt.

The target in this test is T1, SGK1 (Homo sapiens, UniProt O00141).
T1 sequence (O00141 1-431): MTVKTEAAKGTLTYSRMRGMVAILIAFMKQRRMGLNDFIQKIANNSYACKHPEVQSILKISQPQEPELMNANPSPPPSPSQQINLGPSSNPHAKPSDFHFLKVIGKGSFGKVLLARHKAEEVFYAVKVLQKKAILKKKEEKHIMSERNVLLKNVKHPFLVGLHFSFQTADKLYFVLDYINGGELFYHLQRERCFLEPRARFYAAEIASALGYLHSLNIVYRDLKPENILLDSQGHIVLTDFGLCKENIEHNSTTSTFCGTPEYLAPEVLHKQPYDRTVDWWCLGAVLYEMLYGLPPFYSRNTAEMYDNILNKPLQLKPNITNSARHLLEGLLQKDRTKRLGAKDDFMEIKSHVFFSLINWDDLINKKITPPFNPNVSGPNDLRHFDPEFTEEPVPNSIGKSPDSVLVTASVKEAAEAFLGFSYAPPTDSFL
Put plainly: SGK1 inhibition Assay B (Echo mass spectrometry of phosphorylated peptide product). Format: biochemical. The note with it: 60 min at room temperature.

For `CN1[C@@H]2CC[C@H]1C[C@H](Oc1cc(Cl)sc1C(=O)N[C@@H]1CCCN(c3cc(C4=CC(=O)OC4)n4ncnc(N)c34)C1)C2` [Example 927, N—((R)-1-(4-amino-7-(5-oxo-2,5-dihydrofuran-3-yl)pyrrolo[2,1-f][1,2,4]triazin-5-yl)piperidin-3-yl)-5-chloro-3-(((1R,3s,5S)-8-methyl-8-azabicyclo[3.2.1]octan-3-yl)oxy)thiophene-2-carboxamide, TFA salt], the IC50 (commonly the point on the concentration scale where inhibition reaches its midpoint) was 0.1 nM.

`Cc1nc(O[C@@H]2C[C@H]3CC[C@@H](C2)N3C)c(C(=O)N[C@@H]2CCCN(c3cc(-c4csc(C(C)O)c4)n4ncnc(N)c34)C2)s1` (stereo partly drawn) [Example 928, N-((3R)-1-(4-amino-7-(5-(1-hydroxyethyl)thiophen-3-yl)pyrrolo[2,1-f][1,2,4]triazin-5-yl)piperidin-3-yl)-2-methyl-4-(((1R,3s,5S)-8-methyl-8-azabicyclo[3.2.1]octan-3-yl)oxy)thiazole-5-carboxamide, TFA salt] came in with an IC50 of 0.1 nM.

Turning to `Cc1nc(O[C@@H]2C[C@H]3CC[C@@H](C2)N3C2CC(O)C2)c(C(=O)N[C@@H]2CCCN(c3cc(-c4ccc(-n5cnnn5)c(F)c4)n4ncnc(N)c34)C2)s1` (stereo partly drawn) [Example 929, N—((R)-1-(4-amino-7-(3-fluoro-4-(1H-tetrazol-1-yl)phenyl)pyrrolo[2,1-f][11,2,4]triazin-5-yl)piperidin-3-yl)-4-(((1R,3s,5S)-8-(3-hydroxycyclobutyl)-8-azabicyclo[3.2.1]octan-3-yl)oxy)-2-methylthiazole-5-carboxamide TFA salt], the IC50 amounted to 1 nM.

For the compound `Cc1nc(O[C@H]2CC[C@]3(CCCN3)CC2)c(C(=O)N[C@@H]2CCCN(c3cc(-c4ccc(C(N)=O)c(F)c4)n4ncnc(N)c34)C2)s1` [Example 930, 4-(((5S,8r)-1-azaspiro[4.5]decan-8-yl)oxy)-N—((R)-1-(4-amino-7-(4-carbamoyl-3-fluorophenyl)pyrrolo[2,1-f][1,2,4]triazin-5-yl)piperidin-3-yl)-2-methylthiazole-5-carboxamide, TFA salt], the IC50 came to 1 nM.

For the compound `Cc1nc(O[C@H]2CC[C@]3(CCCN3C)CC2)c(C(=O)N[C@@H]2CCCN(c3cc(-c4ccc(C(N)=O)c(F)c4)n4ncnc(N)c34)C2)s1` [Example 931, N—((R)-1-(4-amino-7-(4-carbamoyl-3-fluorophenyl)pyrrolo[2,1-f][1,2,4]triazin-5-yl)piperidin-3-yl)-2-methyl-4-(((5S,8r)-1-methyl-1-azaspiro[4.5]decan-8-yl)oxy)thiazole-5-carboxamide, TFA salt], the IC50 came out at 0.5 nM.

`CNC(=O)c1ccc(-c2cc(N3CCC[C@@H](NC(=O)c4sc(C)nc4O[C@H]4CC[C@@H](N(C)C)CC4)C3)c3c(N)ncnn23)cc1F` [Example 932, N—((R)-1-(4-amino-7-(3-fluoro-4-(methylcarbamoyl)phenyl)pyrrolo[2,1-f][1,2,4]triazin-5-yl)piperidin-3-yl)-4-(((1s,4S)-4-(dimethylamino)cyclohexyl)oxy)-2-methylthiazole-5-carboxamide] showed an IC50 of 3 nM.

As for `Cc1cc(O[C@@H]2C[C@H]3CC[C@@H](C2)N3C)c(C(=O)N[C@@H]2CCCN(c3cc(-c4ccc(-n5cc(CCC#N)nn5)c(F)c4)n4ncnc(N)c34)C2)s1` [Example 933, N—((R)-1-(4-Amino-7-(4-(4-(2-cyanoethyl)-1H-1,2,3-triazol-1-yl)-3-fluorophenyl)pyrrolo[2,1-f][1,2,4]triazin-5-yl)piperidin-3-yl)-5-methyl-3-(((1R,3s,5S)-8-methyl-8-azabicyclo[3.2.1]octan-3-yl)oxy)thiophene-2-carboxamide], the concentration for half-maximal inhibition (IC50) came out at 0.8 nM.

With `Cc1nc(O[C@H]2CC[C@@](C)(N)CC2)c(C(=O)N[C@@H]2CCCN(c3cc(-c4ccc(-n5cnnn5)c(F)c4)n4ncnc(N)c34)C2)s1` [Example 934, 4-(((1s,4S)-4-Amino-4-methylcyclohexyl)oxy)-N—((R)-1-(4-amino-7-(3-fluoro-4-(1H-tetrazol-1-yl)phenyl)pyrrolo[2,1-f][1,2,4]triazin-5-yl)piperidin-3-yl)-2-methylthiazole-5-carboxamide], the concentration for half-maximal inhibition (IC50) was determined as 0.5 nM.

For the origin of these results see patent publication US20260250290A1 (BRISTOL-MYERS SQUIBB COMPANY, priority 2023, published 2026).
